Patent US20160375088A1, “CARDIOLIPIN-TARGETED PEPTIDES INHIBIT BETA-AMYLOID OLIGOMER TOXICITY” (priority 2013, published 2016)

Key:
Aβ1-42 oligomers [1] = biological target: T1, Aβ1-42 oligomers (Homo sapiens, UniProt P05067); experiment: Turbidity (right-angle light scattering at 633 nm) of peptides with Aβ1-42 oligomers; design: purchased Life Technologies; settings: 40 μM Aβ, Hepes pH 7.4
Protocol: Turbidity Measurements of Aromatic-Cationic Peptides Complexed with Aβ1-42 Oligomers: The turbidity of solutions containing aromatic-cationic peptides and/or Aβ1-42 oligomers was measured via right-angle scattering at λ=633 nm (Hitachi F-4500 Fluorescent Spectrophotometer). All experiments were conducted in Hepes (pH 7.4) and scanned immediately.

Aβ1-42 oligomers [2] = biological target: T1, Aβ1-42 oligomers; experiment: Fluorescence emission spectra: interaction of peptide with Aβ1-42 oligomers; format: binding; design: purchased Life Technologies; settings: for shift of emission on contact with Aβ oligomers: 1 μM Aβ oligomers; for emission maximum (λmax) with Aβ oligomers: 20 mM Hepes pH 7.4, 1 μM Aβ oligomers
Source text: Interaction of Aromatic-cationic Peptides with Aβ1-42 Oligomers:
D-Arg-2′,6′-Dmt-Lys-Ald-NH2 ([ald]SS-31) is an aladan (ald) containing derivative of D-Arg-2′,6′-Dmt-Lys-Phe-NH2 (SS-31). See Birk et al., J Am Soc Nephrol. 24(8): 1250-1261 (2013). […] Thus, interaction between D-Arg-2′,6′-Dmt-Lys-Ald-NH2 ([ald]SS-31) and phospholipids causes an observable shift in the fluorescence spectra of the peptide. See Birk et al., J Am Soc Nephrol. 24(8): 1250-1261 (2013). […] The fluorophore aladan was used as a control. All experiments were conducted in 20 mM Hepes (pH 7.4) so as to replicate an environment with physiological pH.

[3] = biological target: T2, Aβ1-42-Cardiolipin-Cu^2+ complex (Homo sapiens, UniProt P05067); experiment: Aβ1-42-Cardiolipin-Cu2+ complex oxygenase activity (Amplex Red, no H2O2); format: biochemical; settings: for increase in Aβ1-42-mediated oxygenase activity compared to the non-metal treated control: 10 μM metal salt incubated with cardiolipin and Aβ1-42 oligomers; for reduction in Aβ1-42-mediated oxygenase activity compared to untreated controls: 10 μM peptide, 30 μM CuCl2, 50 μM Amplex Red; for reduction in Aβ1-42-mediated oxygenase activity compared to untreated controls / inhibition of Aβ1-42-mediated oxygenase activity compared to untreated controls: 30 μM TLCL; for inhibition of Aβ1-42-mediated oxygenase activity compared to untreated controls: 100 μM peptide; for inhibition of Cu2+-dependent stimulation of Aβ1-42-mediated oxygenase activity, dose dependence: FIG. 4B, varying peptide concentrations
T2 construct: purchased Life Technologies
T2 sequence (P05067 672-713 limits assumed, one chain of several): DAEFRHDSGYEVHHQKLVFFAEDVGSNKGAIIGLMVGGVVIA
Protocol: Oligomerization of Aβ1-42 Peptide: Aβ1-42 peptide was dissolved in 1.5 mL of a 1:1 water/acetonitrile solution. 500 μL aliquots were frozen in a methanol/dry ice cooling bath and then lyophilized. Once lyophilized, each aliquot was dissolved in 20 μL DMSO. The aliquots were then vortexed, centrifuged, and sonicated in a water bath at room temperature. 200 μL of filtered 1×PBS and 20 μL of 2% SDS were subsequently added. The Aβ1-42 peptide solution was incubated at 37° C. for 6 hours. 580 μL of water was subsequently added to the Aβ1-42 peptide solution, followed by a 16 hour incubation at 37° C. prior to being stored at 4° C.
Measurement of Aβ1-42-Cardiolipin-Cu^2+ Complex Oxygenase Activity:
Aβ1-42-Cardiolipin-Cu^2+ oxygenase activity was measured using the Amplex Red kit. Amplex Red is a dye that reacts with H2O2 in a 1:1 stoichiometric ratio to produce a highly fluorescent derivative called resorufin (λex/λem=570/585 nm). The presence of peroxidase activity in an Amplex reaction lacking H2O2 is an indicator of oxygenase activity resulting from the reaction between the Amplex Red reagent and oxygen in the solution. All experiments were conducted in the absence of H2O2. A measurement was immediately taken after the introduction of Amplex Red, the last reagent that was added to the reaction. The reaction was allowed to proceed for an additional 10 minutes. Continuous time course data over the 10-minute period was obtained using a microplate spectrofluorometer (Molecular Devices, Sunnyvale, Calif.).

Aβ1-42 oligomers [4] = biological target: T1, Aβ1-42 oligomers; experiment: Transmission electron microscopy of Aβ fibril formation
[5] = 800 nM Aβ oligomers, 30 μM CuCl2

T1 sequence (P05067 672-713 limits assumed): as the sequence (P05067 672-713 limits assumed, one chain of several) above

Row | Molecule | change in light scattering (turbidity) compared to Aβ1-42 oligomer control sample (Aβ1-42 oligomers [1]) | light scattering (Aβ1-42 oligomers [1]) | shift of emission on contact with Aβ oligomers (Aβ1-42 oligomers [2]) | emission maximum (λmax) with Aβ oligomers (Aβ1-42 oligomers [2]; 1 μM, λex=360 nm) [nm] | increase in Aβ1-42-mediated oxygenase activity compared to the non-metal treated control [3] [%] | reduction in Aβ1-42-mediated oxygenase activity compared to untreated controls ([3]; 800 nM Aβ oligomers) [%] | inhibition of Aβ1-42-mediated oxygenase activity compared to untreated controls [3, 5] | inhibition of Cu2+-dependent stimulation of Aβ1-42-mediated oxygenase activity, dose dependence [3] | further results
1 | CN(C)c1ccc2cc(C(=O)CC(N)C(=O)O)ccc2c1 (stereo not drawn) [Ald, β-(6′-dimethylamino-2′-naphthoyl)alanine, reference compound] | no change in turbidity | about 180 RFUs | no shift | 535 |  |  |  |  | 
2 | O=[N+]([O-])[O-].O=[N+]([O-])[O-].[Cu+2] [Cu(NO3)2, copper (II) nitrate hydrate, reference compound] |  |  |  |  | 500 |  |  |  | 
3 | [Cl][Cu][Cl] [CuCl2, copper (II) chloride, reference compound] |  |  |  |  | > 500 |  |  |  | 
4 | CCCCCC=CCC=CCCCCCCCC(=O)OCC(COP(=O)(O)OCC(O)COP(=O)(O)OCC(COC(=O)CCCCCCCC=CCC=CCCCCC)OC(=O)CCCCCCCC=CCC=CCCCCC)OC(=O)CCCCCCCC=CCC=CCCCCC (stereo not drawn) [TLCL, 1,1′,2,2′-tetralinoleoyl cardiolipin, reference compound] |  |  |  |  |  |  |  |  | stimulation of Aβ1-42-mediated oxygenase activity in the presence of Cu2+ ions by phospholipid [3, 5]: capable of stimulating
5 | D-Arg-2′,6′-Dmt-Lys-Ald-NH2 [[ald]SS-31] | six-fold increase |  | blue shift | 465 |  | 90 | complete inhibition | dose dependent | incubation time resulting in formation of Aβ fibrils (Aβ1-42 oligomers [4]; natural fibrillation takes at least seven days): 25 min; increase in the rate of fibril formation (Aβ1-42 oligomers [4]; versus natural fibrillation): 400 fold; emission maximum (λmax) before Aβ oligomers (Aβ1-42 oligomers [2]; 1 μM, λex=360 nm, 20 mM Hepes pH 7.4, no Aβ): 535 nm
6 | D-Arg-2′,6′-Dmt-Lys-Phe-NH2 [SS-31] | no change in turbidity | about 180 RFUs |  |  |  | 90 | complete inhibition | dose dependent | 
